The subject of one data set is α-thrombin. The data set is described as follows: human α-thrombin. To be noted: 37 °C, up to 4 h.
The conditions of data set [1]: cited from earlier work.

For “GEPGAPIDYDEYGDSSEEVGGAEVAQPKLYQRGEGGNGMEPIPEDYLQ (the three Y O-sulfated, R1,2,3 = SO3-)”, the not cleaved in the data set with α-thrombin is given as less than 10% cleavage after 4 h.

Regarding bivalirudin, in data set [1], the “plasma half-life in vivo” value was approximately 30 min.

Source of the values: paper PMC12434495 (Chemical Science, 2025).
